Tests used:
[1] = tested on: Adjuvant Induced Arthritis (AIA) Model in Female Lewis Rats; assay: Suppression of arthritis development in adjuvant induced arthritis (AIA) model, arthritis score; format: in vivo, rat; conditions: PO; for % reduction in arthritis score: day 14 to day 23, compared to vehicle treatment at end of study period; for ED50: Rattus norvegicus, BID, female Lewis rats
Procedure: Adjuvant arthritis was induced on day 1 in female Lewis rats (10-12 weeks) by intradermal injection of heat killed Mycobacterium tuberculosis in complete freund's adjuvant (CFA) intradermally (Mycobacterium tuberculosis 100 mg in 5 mL incomplete freunds adjuvant, 200 μL per rat). Animals were randomized into different treatment groups, each group consist of 8 animals based on clinical scores on day 14. The animals in control group were given CFA and in second control group were administered with CFA and vehicle (1% Tween-80+0.5% CMC, quantity sufficient, 3 ml/kg, PO), where as animals in experimental groups were treated with CFA and EP4 antagonist (Example B2 and Example B4) in therapeutic fashion orally twice a day (BID) from day 14 to day 23 at 0.1, 0.3, 1, 3, 10 and 30 mg/kg doses.
Animals were evaluated for clinical symptoms and scored accordingly for inflamed paws and erythema. The scorer was blind to the treatment groups. Key findings for example B2 (Refer FIG. 1) and B4 (Refer FIG. 2) in rat arthritis model are as follows.

[2] = target: T1, hEP4 (C6 glioma cells overexpressing hEP4) (Homo sapiens, UniProt P35408); assay: hEP4 cell based assay (cAMP), inhibition of PGE2 induced cAMP, HTRF; conditions: 1 μM compound, PGE2 at EC80
T1 construct: host or cells: C6 glioma cells overexpressing hEP4
Procedure, shortened: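 C6 glioma cells overexpressing hEP4 were pre-incubated 15 min with compound plus IBMX and Ro 20-1724 (each […]), then stimulated 30 min with PGE2 at EC80; 1% DMSO. cAMP was read by competitive HTRF (665/620 nm); IC50 came from non-linear regression, with agonist-only as 0% and no-agonist as 100% inhibition.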

human EP4 receptor = target: T2, human EP4 receptor (Homo sapiens, UniProt P35408); assay: hEP4 radioligand binding assay ([3H] PGE2 competitive binding, membrane fractions); conditions: 300 nM compound; 1 nM [3H] PGE2
T2 construct: expressed in transfected cells; host or cells: FreeStyle293 (HEK293F) cells, transient transfection with pcDNA3.1(+), total membrane fraction
Procedure, shortened: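 Membranes from FreeStyle293 (HEK293F) cells transiently expressing full-length human EP4; 10 μg protein incubated with compound and 1 nM [3H]PGE2 in 50 mM Tris-HCl pH 6.0, 10 mM MgCl2, 0.5 mM EDTA, 1% DMSO, 2 h at room temperature. Nonspecific binding with 10 μM unlabeled PGE2; filtration and scintillation counting; Ki by one-site fit.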

T1 sequence (P35408 whole entry): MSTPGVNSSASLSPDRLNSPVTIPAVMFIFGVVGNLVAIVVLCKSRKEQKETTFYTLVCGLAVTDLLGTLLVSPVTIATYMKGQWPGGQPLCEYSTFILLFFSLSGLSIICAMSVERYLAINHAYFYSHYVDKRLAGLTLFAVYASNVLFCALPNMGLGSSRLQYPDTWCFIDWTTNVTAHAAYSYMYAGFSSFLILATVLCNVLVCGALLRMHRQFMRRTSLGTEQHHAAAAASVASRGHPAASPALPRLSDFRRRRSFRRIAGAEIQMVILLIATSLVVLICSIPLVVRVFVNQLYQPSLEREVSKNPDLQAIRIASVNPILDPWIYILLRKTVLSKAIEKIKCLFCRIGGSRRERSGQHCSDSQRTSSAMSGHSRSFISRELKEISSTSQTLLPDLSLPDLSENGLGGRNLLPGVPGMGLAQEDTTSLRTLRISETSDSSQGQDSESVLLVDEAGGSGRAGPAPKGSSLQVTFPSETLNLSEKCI
T2 sequence (P35408 whole entry): as above

inhibition at 1 µM [2]	inhibition at 0.3 µM (human EP4 receptor)	Compound	% reduction in arthritis score ([1]; 0.1 mg/kg BID)	% reduction in arthritis score ([1]; 0.3 mg/kg BID)	% reduction in arthritis score ([1]; 1 mg/kg BID)	% reduction in arthritis score ([1]; 3 mg/kg BID)	% reduction in arthritis score ([1]; 10 mg/kg BID)	% reduction in arthritis score ([1]; 30 mg/kg BID)	ED50 [1]
100%	98%	C[C@H](Nc1nccc2c1N(Cc1cccc(Cl)c1)CCO2)c1ccc(C(=O)O)cc1 [Example B2, 4-[(1S)-1-[[4-[(3-Chlorophenyl)methyl]-2,3-dihydropyrido[4,3-b][1,4]oxazin-5-yl]amino]ethyl]benzoic acid]	23%	45%	46%	67%	68%	71%	0.76 mg/kg
97%	83%	O=C(O)c1ccc(C2(Nc3nccc4c3N(Cc3ccc(F)c(F)c3)CCO4)CC2)cc1 [Example B4, 4-[1-[[4-[(3,4-Difluorophenyl)methyl]-2,3-dihydropyrido[4,3-b][1,4]oxazin-5-yl]amino]cyclopropyl]benzoic acid]	3%	4%	27%	39%	51%	55%	8.8 mg/kg
